Source: the NIST ThermoML archive (doi:10.1016/j.jct.2018.02.005)
± gives the expanded uncertainty stated by the source.

Test: refractive index (Na D-line) (dimensionless)
Conditions: 298.15 K; 100 kPa; Liquid; Standard Abbe refractometry

| Structure (SMILES) | refractive index |
| --- | --- |
| CO [methanol] | 1.32655 ± 0.00031 |
| CCO [ethanol] | 1.35947 ± 0.00033 |
| CC(C)O [propan-2-ol] | 1.37503 ± 0.00033 |
| O [water] | 1.33251 ± 0.00031 |
